Patent EP1313763B1, “METHOD FOR THE EXTRACTION AND THE USE OF ANTI[…] PEPTIDES FOR TREATING INFECTIOUS DISEASES” (IPF Pharmaceuticals GmbH, priority 2000, dated 2001)

Assays:
E. coli = assay: Radial diffusion inhibition test of HPLC fractions; format: cell-based, Escherichia coli; details: pure peptide in purified HPLC fraction from tissue extract; E. coli in agarose, 37 °C, 16 h
From the text: (§1) Für die Reinigung von antimikrobiellen Peptiden aus Plazentaextrakt können verschiedene HPLC Trennverfahren kombiniert werden, um eine möglichst reine Darstellung über eine optimale Trennung zu erzielen und inaktive, unerwünschte Bestandteile abzutrennen. Die jeweiligen Proben, die nach jedem Trennungsschritt entstehen, werden auf ihre antimikrobielle Aktivität gegen Escherichla coli mit Hilfe des Radial-DifFusions-Hemmtests untersucht (siehe Beispiel 3). Notwendig für die Reinigung ist die Kombination von mindestens zwei Reverse Phase Chromatographieschritten und der Einsatz einer Kationenaustausch-HPLC-Trennung. In dem Biotest sollte die jeweilige Probe salzarm eingesetzt werden, um ein möglichst optimales Screeningergebnis zu erhalten.
as §1, with “Thymusextrakt” for “Plazentaextrakt”, “Escherichia” for “Escherichla”, “Radial-Diffusions-Hemmtests” for “Radial-DifFusions-Hemmtests”, “2). Empfehlenswert” for “3). Notwendig”, “In dem Biotest sollte die jeweilige Probe salzarm eingesetzt werden, um ein möglichst optimales Screeningergebnis zu erhalten.” left out

[1] = tested on: Klebsiella pneumoniae ATCC 10031; assay: Minimal inhibitory concentration (MIC) determination; details: incubation 18 ± 2 h, chemically synthesized peptides
Experimental: (§2) Die antimikrobielle Aktivität der erfindungsgemäßen Peptide wurde unter Anwendung der Bestimmung der minimalen Hemmstoffkonzentration (MIC) gegen verschiedene Keime, wie Gram-positive und Gram-negative Bakterien und Hefen, untersucht. Die minimale Hemmstoffkonzentration bezeichnet die Peptidkonzentration, die minimal erforderlich ist, um das Wachstum von Mikroorganismen nach einer Inkubationszeit von 18 ± 2 h vollständig zu hemmen.

[2] = tested on: Bacillus subtilis ATCC 6051; assay: as above; details: incubation 18 ± 2 h, chemically synthesized peptides
Experimental: as §2

[3] = tested on: Staphylococcus aureus ATTC 25923; assay: as above; details: incubation 18 ± 2 h, chemically synthesized peptides
From the text: (§3) Dabei werden als Testmikroorganismen entweder Staphylococcus aureus oder Escherichia coli verwendet, je nachdem, bei welchem Mikroorganismus das Peptid bessere Wirksamkeit hat. Die Bakterien sind wie folgt charakterisiert: • Staphylococcous aureus: Gram-positive Kokken, ATCC 25923 • Escherichia coll: Gram-negative Stäbchen, ATCC 25922
(§4) Die antimikrobielle Aktivität der erfindungsgemäßen Peptide wurde unter Anwendung der Bestimmung der minimalen Hemmstoffkonzentration (MIC) gegen verschiedene Keime, wie Gram-positive und Gram-negative Bakterien und Hefen, untersucht. Die minimale Hemmstoffkonzentration bezeichnet die Peptidkonzentration, die minimal erforderlich ist, um das Wachstum von Mikroorganismen nach einer Inkubationszeit von 18 ± 2 h vollständig zu hemmen. Diese Quantifizierung der antimikrobiellen Aktivität ist mit chemisch synthetisierten Peptiden (Peptidsequenzen 1-5) gegen nicht pathogene sowie human pathogene Erreger durchgeführt worden.

[4] = tested on: Staphylococcus carnosus TM 300; assay: as above; details: incubation 18 ± 2 h, chemically synthesized peptides
Experimental: as §2

[5] = tested on: Pseudomonas aeruginosa clinical isolate; assay: as above; details: incubation 18 ± 2 h, chemically synthesized peptides
Experimental: as §2

[6] = tested on: Escherichia coli BL21 (DE3); assay: as above; details: incubation 18 ± 2 h, chemically synthesized peptides
Experimental: as §2

[7] = tested on: Escherichia coli ATTC 25922; assay: as above; details: incubation 18 ± 2 h, chemically synthesized peptides
From the text: as §3, §4

[8] = tested on: Micrococcus luteus ATCC 9341; assay: as above; details: incubation 18 ± 2 h, chemically synthesized peptides
Experimental: as §2

[9] = tested on: Saccharomyces cerevisiae ATCC 9763; assay: as above; details: incubation 18 ± 2 h, chemically synthesized peptides
Experimental: as §2

Substance | antimikrobielle Aktivität (E. coli) | minimale Hemmkonzentration (MIC) [1] [µg/mL] | minimale Hemmkonzentration (MIC) [2] [µg/mL] | minimale Hemmkonzentration (MIC) [3] [µg/mL] | minimale Hemmkonzentration (MIC) [4] [µg/mL] | minimale Hemmkonzentration (MIC) [5] [µg/mL] | minimale Hemmkonzentration (MIC) [6] [µg/mL] | minimale Hemmkonzentration (MIC) [7] [µg/mL] | minimale Hemmkonzentration (MIC) [8] [µg/mL] | minimale Hemmkonzentration (MIC) [9] [µg/mL]
hHEM-g-130-146 [Peptide 1] | antimikrobiell wirksame | 300 | 100 | 200 | 100 | > 200 | 100 | 200 | 200 | 100
hGAPDH-1-31 [Peptide 2] | antimikrobiell wirksame | – | 7.8 | – | 12.5 | 31.25 | 7.8 | – | 31.25 | 100
